Reference: patent US9663453B2, “Metabolites and oximes with vasodilator and hypotensive activity” (Universidad de Antofagasta, priority 2014, dated 2017)
Where “and” joins values, the source holds several entries; their conditions need not be identical. Equal entries are not always repeated. Where two headings read alike, the source gives them in different places.

Columns and labels:
[1] = test system: PHE-precontracted rat aorta with endothelium (E+); assay: Vasodilator effect in PHE-precontracted rat aortic rings with intact endothelium (E+); assay type: cell-based; details: for EC50: read-out: EC50 (concentration required to achieve 50% relaxation of tissue)
Experimental: (§1) 3-5 months old rats with an average weight of 270±30 g, were used for vascular reactivity experiments.
(§2) Measure of Dilation Activity in Rat Aortic Rings
(§3) Obtaining Aorta rings: Group II rats fasted 24 hours were euthanized by cervical fracture. Thoracic aorta was excised carefully from distal to proximal, from the abdominal aortic bifurcation to aortic arch and placed in a Petri dish containing Krebs-Ringer solution at room temperature with the following composition: 120 mM NaCl; 4.2 mM KCl; 1.18 mM KH2PO4; 1.2 mM MgSO4; 1.3 mM CaCl2; 5 mM C6H12O6; and 25 mM NaHCO3 pH 7.4 and constantly gasified with a mixture of 95% O2 and 5% CO2. After removing blood, fat and connective tissue, the aorta was transversely cut in cylindrical rings 2-3 mm in diameter.
(§4) Mounting of Rings: Each ring was mounted between two triangular stainless steel hooks, one hook was suspended in a glass rod (anchorage) and placed in a Single Organ Chamber with 10 ml Krebs-Ringer constantly aerated with 95% O2 and 5% CO2 gaseous mixture and maintained at 37° C. by thermo regulated pump. The second hook was connected by a thread to an Isometric Force Transducer XDCR (Radnoti Glass Technology Inc. USA.), connected to a data acquisition unit PowerLab 8/30 (ADInstruments). The data were processed using LabChart 7 Pro software, provided by ADInstruments.
(§5) Conditioning of Tissue: After being mounted rings were left to rest with no tension for 30 minutes. Subsequently Krebs-Ringer solution was replaced and rings were allowed to rest for 10 minutes. The rings were then carefully tensioned twice at intervals of 10 minutes each at 1.00 g tension value using micromanipulators. Two settings of tension at 1.40 g at 10 minutes interval each were then made. After the period of stabilization of the tissue, tissue viability was assessed by the addition of solution of 60 mM potassium chloride (KCl). After 10 minutes of contraction of the tissue, it was washed twice at intervals of 5 minutes each before the next addition of KCl.
(§6) Measure of vasodilatory activity: The aortic tissue with endothelium already conditioned was applied a tension of 1.4 g, 1 μM PHE solution was added after 10 minutes. PHE was added cumulatively to each single organ bath after stabilization of PHE-induced contractile response. Stock solutions of 10^−1 M concentration in DMSO were prepared to determine the vasodilatory activity of the isolated metabolites. […] The vasodilator effect was recorded for a period of 30 minutes for each of the concentrations used (FIG. 1). The results are expressed as relaxation percent using the following formula: […]
(§7) wherein R1 is the response induced by PHE and R2 is the response after the extracts are added.
(§8) Endothelium integrity was tested by addition of 1 μM ACh to rings precontracted with 1 uM PHE, and rings were considered with intact endothelium when the ACh dilator response was greater than 80%. While rings with response lower than 10% were discarded (FIG. 2).
(§9) Vascular reactivity experiments were performed to establish the vasodilator action of the isolated compounds. For this, compounds at concentration of 10^−4M were added to the organ chamber, the vasodilatory effect in rings with intact endothelium (E+) and without endothelium (E−) pre-contracted with 1 μM PHE was quantified. We performed parallel vehicle control (DMSO) to discard the relaxing effect of aortic tissue.

[2] = test system: PHE-precontracted rat aorta without endothelium (E−); assay: Vasodilator effect in PHE-precontracted rat aortic rings without endothelium (E−); assay type: cell-based; details: for Emax at 100 µM: read-out: Emax, maximum relaxation effect; for EC50: dose-response curve; for Emax: read-out: Emax (% relaxation) of dose-response curve
Experimental: as §1, §2, §3, §4, §5, §6, §7, §8, §9

anesthetized rats = assay: In vivo hypotensive effect in anesthetized rats (mean blood pressure after intravenous administration); details: for % MBP reduction / MBP: mean ± SE
Experimental: Animals used were female albino rats of the Sprague-Dawley strain, obtained from the vivarium of the Universidad de Antofagasta. Two groups of animals were used separated by age:
10-14 months old rats with an average weight of 400±70 g, were used for in vivo experiments. These animals were chosen according to their baseline health status of mild hypertension.
In Vivo Tests—Hypotensive Effect in Anesthetized Rats In vivo experiments were performed using the following protocol. Group I rats were anesthetized with a 5% sodium thiopental aqueous solution at doses of 50 mg/kg animal body weight by intraperitoneal injection. The femoral vein was exposed and cannulated with a PE-10 […] catheter for administering extracts, metabolites and drugs. The right carotid artery was exposed and cannulated using a PE-50 […] catheter filled with heparinized saline (100 IU/mL). This catheter was connected to a pressure transducer (TSD104A) coupled to a data acquisition unit MP100 (BIOPAC Systems Inc) for recording blood pressure. The trachea was exposed and cannulated to facilitate spontaneous breathing of animals. Simultaneously, an ECG recording in derivation II (DII-ECG) was performed using an ECG100B (BIOPAC Systems Inc) module connected to a data acquisition unit MP100. The level of anesthesia of the animals was under constant supervision, so as to remain within surgical levels.
Prior to administration of the next dose, blood pressure and ECG recording were monitored until complete recovery of baseline parameters (pressure and ECG). Effects of each administered dose was measured relative to changes in mean blood pressure, diastolic blood pressure, systolic blood pressure, electrocardiographic changes and compared against the effect of propranolol as a positive control at concentration of 10 mg/Kgweight. After completion of each experiment animals were euthanized by an overdose of anesthetic, by femoral route. The results are expressed as % reduction in BMP, parameter determined using the following equation.
Wherein B is the baseline BMP and E is the value of BMP produced by different doses studied.
All records were performed using 3.9.6.1 Acknowledge software (BIOPAC Systems Inc) and statistical analysis was performed using GraphPad Prism 5.03 software (GraphPad Software Inc.)

[3] = Rattus norvegicus, compound at 10^−4 M, rings without endothelium (E−) pre-contracted with 1 μM PHE, FIG. 5B
[4] = Rattus norvegicus, increasing doses up to 10^−4 M, E−
[5] = Rattus norvegicus, compound at 10^−4 M, rings with intact endothelium (E+) pre-contracted with 1 μM PHE, FIG. 5A, read-out: Emax (% relaxation)
[6] = Rattus norvegicus, dose-response curve, E+
[7] = Rattus norvegicus, maximum effect at 10^−4 M, increasing doses, E+, read-out: Emax (% relaxation) of dose-response curve
[8] = dose 10^−8 (head: mg/Kgweight; text: M), intravenous
[9] = dose 10^−9 (head: mg/Kgweight; text: M), intravenous
[10] = dose 10^−10 (head: mg/Kgweight; text: M), intravenous
[11] = positive control, propranolol 10^−6 M

SMILES: CC(=O)OCC[N+](C)(C)C [ACh, acetylcholine, reference compound]
- Emax at 1 µM ([1]; Rattus norvegicus, 10^−6 M ACh, rings with intact endothelium (E+), FIG. 5A, read-out: Emax (% relaxation), positive control): 105 ± 5%

SMILES: CC(=O)c1ccc(O)c(CC=C(C)C)c1 [Metabolite (A), 4-hydroxy-3-(isopenten-2-yl)-acetophenone]
- Emax at 100 µM [2, 3]: 118 ± 10.7%
- EC50 ([2]; Rattus norvegicus, E−): 7.31 nM
- Emax [2, 4]: 109 ± 7.53%
- Emax at 100 µM [1, 5]: 122 ± 2.09%
- EC50 [1, 6]: 8.98 nM
- Emax at 100 µM [1, 7]: 111 ± 7.62%
- concentration from which the vasodilator effect started ([1]; dose-response curve, E+): ≥ 10^−8 M
- % MBP reduction (anesthetized rats; dose 10^−4 M, intravenous): 46.93±1.01%
- MBP (anesthetized rats; dose 10^−4 M, intravenous): 72.12 ± 2.92 mmHg
- % MBP reduction (anesthetized rats; dose 10^−4 M, intravenous, listed as Metabolite 1): 46.93 ± 1.01%
- % MBP reduction (anesthetized rats; dose 10^−5 M, intravenous): 45.37 ± 1.09%
- MBP (anesthetized rats; dose 10^−5 M, intravenous): 74.24 ± 2.76 mmHg
- % MBP reduction (anesthetized rats; dose 10^−6 M, intravenous): 35.92 ± 2.01%
- MBP (anesthetized rats; dose 10^−6 M, intravenous): 87.09 ± 1.14 mmHg
- % MBP reduction (anesthetized rats; dose 10^−7 M, intravenous): 29.68 ± 3.42%
- MBP (anesthetized rats; dose 10^−7 M, intravenous): 95.56 ± 5.01 mmHg
- % MBP reduction (anesthetized rats; dose 10^−8 M, intravenous): 25.68 ± 5.24%
- MBP (anesthetized rats; dose 10^−8 M, intravenous): 101.0 ± 8.06 mmHg
- % MBP reduction (anesthetized rats; dose 10^−9 M, intravenous): 23.62 ± 5.76%
- MBP (anesthetized rats; dose 10^−9 M, intravenous): 103.8 ± 7.98 mmHg
- % MBP reduction (anesthetized rats; dose 10^−10 M, intravenous): 16.56 ± 9.38%
- MBP (anesthetized rats; dose 10^−10 M, intravenous): 113.4 ± 12.59 mmHg
- concentration from which the effect on MBP starts being significant (anesthetized rats; intravenous, anesthetized rats): ≥ 10^−6 M

SMILES: C=C(C)[C@@H]1Cc2cc(C(C)=O)c(O)cc2O1 [Metabolite (B), 6-hydroxy-2-isopropenyl-5-acetyl-2,3-dihydrobenzofuran]
- Emax at 100 µM [2, 3]: 146 ± 4.49%
- EC50 ([2]; Rattus norvegicus, E−): 5.94 nM
- Emax [2, 4]: 109 ± 7.53%
- Emax at 100 µM [1, 5]: 135 ± 3.78%
- EC50 [1, 6]: 7.16 nM
- Emax at 100 µM [1, 7]: 112 ± 6.21%
- concentration from which the vasodilator effect started ([1]; dose-response curve, E+): ≥ 10^−8 M

SMILES: CC(C)=CCc1cc(/C(C)=N/O)ccc1O [Oxime (1), 4-hydroxy-3-(isopenten-2-yl)-acetophenoxime]
- Emax at 100 µM [2, 3]: 120 ± 1.74%
- EC50 ([2]; Rattus norvegicus, E−): 6.56 nM
- Emax [2, 4]: 114 ± 6.19%
- Emax at 100 µM [1, 5]: 130 ± 2.54%
- EC50 [1, 6]: 6 nM
- Emax at 100 µM [1, 7]: 119 ± 3.92%
- tissue relaxation ([1]; at concentration 10^−5 M, dose-response curve, E+): 101.6±0.90%
- concentration from which the vasodilator effect started ([1]; dose-response curve, E+): ≥ 10^−9 M
- % MBP reduction (anesthetized rats; dose 10^−7 (head: mg/Kgweight; text: M), intravenous, maximum effect): 70.61 ± 4.32%
- % MBP reduction (anesthetized rats; dose 10^−7 (head: mg/Kgweight; text: M), intravenous, maximum effect, listed as oxime (1)): 70.61±4.32%
- MBP (anesthetized rats; dose 10^−7 (head: mg/Kgweight; text: M), intravenous): 41.65 ± 0.85 mmHg
- % MBP reduction (anesthetized rats; [8]): 58.31 ± 3.26%
- MBP (anesthetized rats; [8]): 59.05 ± 2.09 mmHg
- % MBP reduction (anesthetized rats; [9]): 38.41 ± 2.35%
- MBP (anesthetized rats; [9]): 87.28 ± 1.90 mmHg
- % MBP reduction (anesthetized rats; [10]): 36.60 ± 7.90%
- MBP (anesthetized rats; [10]): 89.84 ± 10.88 mmHg
- concentration from which the effect on MBP starts being significant (anesthetized rats; intravenous, anesthetized rats): ≥ 10^−9 M
- doses that induced acute hypotension and subsequent animal death by cardiac arrest (anesthetized rats; intravenous, anesthetized rats): higher than 10^−7 M

SMILES: C=C(C)C1Cc2cc(C(C)=NO)c(O)cc2O1 (centres unmarked) [Oxime (2), 6-hydroxy-2-isopropenyl-5-acetyloxime-2,3-dihydrobenzofuran]
- Emax, maximum relaxation effect ([2]; compound at 10^−4 M, rings without endothelium (E−) pre-contracted with 1 μM PHE, FIG. 5B): 117.7±1.00%
- EC50 ([2]; E−): 4.65 nM
- Emax (% relaxation) of dose-response curve ([2]; increasing doses up to 10^−4 M, E−): 110.3±4.40%
- Emax (% relaxation) ([1]; compound at 10^−4 M, rings with intact endothelium (E+) pre-contracted with 1 μM PHE, FIG. 5A): 118.4±0.93%
- concentration from which the vasodilator effect started ([1]; dose-response curve, E+): ≥ 10^−8 M
- EC50 ([1]; dose-response curve, E+): 4.3 nM
- Emax (% relaxation) of dose-response curve ([1]; maximum effect at 10^−4 M, increasing doses, E+): 109.3±2.72%

SMILES: CC(C)NCC(O)COc1cccc2ccccc12 (centres unmarked) [propranolol, reference compound]
- % MBP reduction (anesthetized rats; [11]): 18.99 ± 4.35% and 22.29 ± 3.20%
- MBP (anesthetized rats; [11]): 110.1 ± 6.03 mmHg and 108.70 ± 8.55 mmHg
